# In article PMC6723059, “A Collection of Bioactive Nitrogen-Containing Molecules from the Marine Sponge Acanthostrongylophora ingens” (Marine Drugs, 2019):
# Target: T1, cyclin-dependent kinase 2 (CDK2/cyclin A) (Homo sapiens, UniProt P24941)
# T1 construct: with cyclin A
# Assay: in vitro protein kinase activity assay, […] ATP
# Assay type: biochemical
smiles,measurement,value
"O=C1N[C@@H](Cc2ccccc2)C(=O)N2CCC[C@H]12 [compound 6, cyclo(D-Pro-L-Phe)]",IC50,1000 nM
